Data on 30 compounds can be found in patent publication US10988477B2 (Merck Patent GmbH, priority 2018, dated 2021).

In assay [1] the target is intracellular GCN2 (phosphorylation of the GCN2 substrate eIF2α) (Homo sapiens, UniProt Q9P2K8). The assay can be described thus: GCN2 cellular inhibition assay (AlphaScreen SureFire P-eIF2α Ser51, borrelidin-treated U2OS cells). It is filed as cell-based. The following applies: compounds of Formula IV; biomarker assay, phosphorylated eIF2α Ser51 in borrelidin-treated U2OS cells. The essentials:
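U2OS, overnight attach; cpd 4-fold serial dil. from 40 μM final; borrelidin 10 μM, 1 h 37 °C/5% CO2; lyse; AlphaScreen P-eIF2α Ser51 (acceptor 2 h, donor overnight, RT, dark); % inhib. vs borrelidin-only.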
For orientation: Alpha assays give light when donor and acceptor beads are brought close together.

In the next assay the target is GCN2 kinase (Homo sapiens, UniProt Q9P2K8). The assay can be described thus: GCN2 enzyme inhibition assay (Transcreener ADP2 fluorescence polarization). The assay is classed as biochemical. The following applies: Enzyme activity for compounds of Formula IV; Ki(app), 280 μM ATP, 25° C. An outline of the steps: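 Human GCN2 (4 nM) preincubated 10 min with compound (0–8 μM) and 200 μM (RS)7 peptide in Tris-HCl pH 7.5, NaCl, MgCl2, DTT. Reaction started with 280 μM ATP, run 1 h at 25 °C. ADP detected by Transcreener fluorescence polarization. IC50 and Ki(app) fitted by tight-binding algorithm.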

SMILES strings stand for the structures.

intracellular GCN2 (phosphorylation of the GCN2 substrate eIF2α), sequence (Q9P2K8 whole entry): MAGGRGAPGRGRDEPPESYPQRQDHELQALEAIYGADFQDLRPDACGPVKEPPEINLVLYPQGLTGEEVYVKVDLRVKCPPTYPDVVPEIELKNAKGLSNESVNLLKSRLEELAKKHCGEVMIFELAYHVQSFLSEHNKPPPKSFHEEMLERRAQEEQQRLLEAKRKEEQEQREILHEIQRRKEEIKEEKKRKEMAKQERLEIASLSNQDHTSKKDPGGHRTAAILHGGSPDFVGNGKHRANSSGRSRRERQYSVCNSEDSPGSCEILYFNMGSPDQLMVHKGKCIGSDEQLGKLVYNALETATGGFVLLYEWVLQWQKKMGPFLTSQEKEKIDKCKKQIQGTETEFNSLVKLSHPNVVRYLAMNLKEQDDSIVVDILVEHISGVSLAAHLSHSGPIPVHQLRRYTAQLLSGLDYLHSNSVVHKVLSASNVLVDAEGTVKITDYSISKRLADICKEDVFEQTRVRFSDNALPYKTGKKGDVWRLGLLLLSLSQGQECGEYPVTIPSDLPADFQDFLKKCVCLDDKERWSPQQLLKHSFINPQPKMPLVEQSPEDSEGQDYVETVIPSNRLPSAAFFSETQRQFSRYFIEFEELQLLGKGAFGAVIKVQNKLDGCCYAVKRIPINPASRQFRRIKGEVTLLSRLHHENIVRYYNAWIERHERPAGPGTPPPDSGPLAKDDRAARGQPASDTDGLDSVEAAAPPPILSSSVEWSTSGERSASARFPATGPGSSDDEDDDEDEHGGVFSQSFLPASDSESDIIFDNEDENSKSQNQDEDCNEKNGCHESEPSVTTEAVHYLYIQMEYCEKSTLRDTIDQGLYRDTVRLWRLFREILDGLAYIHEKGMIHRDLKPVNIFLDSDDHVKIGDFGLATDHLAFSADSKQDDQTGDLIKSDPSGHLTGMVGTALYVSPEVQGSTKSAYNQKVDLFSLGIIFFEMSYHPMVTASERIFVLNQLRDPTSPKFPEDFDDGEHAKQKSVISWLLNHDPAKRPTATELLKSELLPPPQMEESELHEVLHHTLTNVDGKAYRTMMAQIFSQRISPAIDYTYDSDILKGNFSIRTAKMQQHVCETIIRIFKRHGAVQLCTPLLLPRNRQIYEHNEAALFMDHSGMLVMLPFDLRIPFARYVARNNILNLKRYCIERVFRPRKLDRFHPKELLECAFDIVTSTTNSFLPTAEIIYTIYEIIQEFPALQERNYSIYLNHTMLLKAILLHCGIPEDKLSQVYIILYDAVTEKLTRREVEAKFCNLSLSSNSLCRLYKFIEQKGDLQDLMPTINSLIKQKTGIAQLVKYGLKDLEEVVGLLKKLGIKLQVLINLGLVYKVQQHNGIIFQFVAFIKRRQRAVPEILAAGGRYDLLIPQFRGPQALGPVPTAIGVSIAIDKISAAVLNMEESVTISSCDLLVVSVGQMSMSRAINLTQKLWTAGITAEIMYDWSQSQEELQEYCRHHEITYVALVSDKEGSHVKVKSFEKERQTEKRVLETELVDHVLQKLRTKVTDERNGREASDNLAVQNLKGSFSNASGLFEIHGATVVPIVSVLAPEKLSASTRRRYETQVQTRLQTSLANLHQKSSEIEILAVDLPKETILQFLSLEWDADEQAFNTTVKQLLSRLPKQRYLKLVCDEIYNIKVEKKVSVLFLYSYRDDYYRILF
GCN2 kinase, sequence (Q9P2K8 whole entry): as above

The IC50 is the concentration needed to halve the response being measured. A high value points to lower potency. In turn, `CC(=O)N1CCN(c2cccc(-c3cnc4cnc(C(N)=O)cn34)n2)CC1` [IV-184, 3-(6-(4-Acetylpiperazin-1-yl)pyridin-2-yl)imidazo[1,2-a]pyrazine-6-carboxamide] gave an IC50 in assay [1] below 500 nM. The Ki on GCN2 kinase lay in the range of 10 to 100 nM.

`CC1CN(c2ccnc(-c3cnc4cnc(C(F)(F)F)cn34)n2)CC(c2cn[nH]c2)N1` (stereo not drawn) [IV-189, 3-(4-(3-Methyl-5-(1H-pyrazol-4-yl)piperazin-1-yl)pyrimidin-2-yl)-6-(trifluoromethyl)imidazo[1,2-a]pyrazine] yielded a concentration for half-maximal inhibition (IC50) in assay [1] of 500 to 5000 nM. The compound further yielded a Ki at GCN2 kinase of 10 to 100 nM.

`CC1CN(c2ccnc(-c3cnc4cnc(Cl)cn34)n2)CC(c2cn[nH]c2)O1` (stereo not drawn) [IV-193, 4-(2-(6-Chloroimidazo[1,2-a]pyrazin-3-yl)pyrimidin-4-yl)-2-methyl-6-(1H-pyrazol-4-yl)morpholine] yielded a concentration for half-maximal inhibition (IC50) in assay [1] below 500 nM. In addition, the Ki at GCN2 kinase was below 10 nM.

With `CC1CN(c2ccnc(-c3cnc4cnc(C#N)cn34)n2)CC(c2cn[nH]c2)O1` (stereo not drawn) [IV-194, 3-(4-(2-Methyl-6-(1H-pyrazol-4-yl)morpholino)pyrimidin-2-yl)imidazo[1,2-a]pyrazine-6-carbonitrile], the IC50 in assay [1] was below 500 nM. Further, at GCN2 kinase, the Ki is below 10 nM.

With `CC1CN(c2ccnc(-c3cnc4cnc(C(F)(F)F)cn34)n2)CC(c2cn[nH]c2)N1C` (stereo not drawn) [IV-195, 3-(4-(3,4-Dimethyl-5-(1H-pyrazol-4-yl)piperazin-1-yl)pyrimidin-2-yl)-6-(trifluoromethyl)imidazo[1,2-a]pyrazine], the IC50 in assay [1] fell in the range of 500 to 5000 nM. Further, at GCN2 kinase, the Ki lay in the range of 10 to 100 nM.

Turning to `NC(=O)c1cn2c(-c3cccc(N4CCCCC4)n3)cnc2cn1` [IV-204, 3-(6-(Piperidin-1-yl)pyridin-2-yl)imidazo[1,2-a]pyrazine-6-carboxamide], in assay [1], the IC50 is above 5000 nM. The compound also had a Ki at GCN2 kinase of 10 to 100 nM.

In assay [1], `CC(=O)N1CCN(c2cccc(-c3cnc4cnc(-n5cccn5)cn34)n2)CC1` [IV-209, 1-(4-(6-(6-(1H-Pyrazol-1-yl)imidazo[1,2-a]pyrazin-3-yl)pyridin-2-yl)piperazin-1-yl)ethan-1-one] returned an IC50 of 500 to 5000 nM. Also, the Ki on GCN2 kinase was below 10 nM.

`NC(=O)c1cn2c(-c3cccc(N4CCN5C(=O)CCCC5C4)n3)cnc2cn1` (stereo not drawn) [IV-210, 3-(6-(6-Oxooctahydro-2H-pyrido[1,2-a]pyrazin-2-yl)pyridin-2-yl)imidazo[1,2-a]pyrazine-6-carboxamide]: the IC50 in assay [1] was in the range of 500 to 5000 nM. The compound also displayed a Ki on GCN2 kinase below 10 nM.

In assay [1], `FC(F)(F)c1cn2c(-c3nccc(N4CCNC(c5cn[nH]c5)C4)n3)cnc2cn1` (stereo not drawn) [IV-211, 3-(4-(3-(1H-Pyrazol-4-yl)piperazin-1-yl)pyrimidin-2-yl)-6-(trifluoromethyl)imidazo[1,2-a]pyrazine] registered a concentration for half-maximal inhibition (IC50) of 500 to 5000 nM. At GCN2 kinase, this compound displayed a Ki below 10 nM.

`CC1CN(c2ccnc(-c3cnc4cnc(C(F)(F)F)cn34)n2)C(C)C(c2cn[nH]c2)N1` (stereo not drawn) [IV-222, 3-(4-(2,5-Dimethyl-3-(1H-pyrazol-4-yl)piperazin-1-yl)pyrimidin-2-yl)-6-(trifluoromethyl)imidazo[1,2-a]pyrazine] gave an IC50 in assay [1] below 500 nM. Also, on GCN2 kinase, the Ki is below 10 nM.

Take `C[C@H]1CN(c2ccnc(-c3cnc4cnc(C(F)(F)F)cn34)n2)[C@@H](C)[C@@H](c2cn[nH]c2)N1` [IV-224, 3-(4-((2S,3R,5S)-2,5-dimethyl-3-(1H-pyrazol-4-yl)piperazin-1-yl)pyrimidin-2-yl)-6-(trifluoromethyl)imidazo[1,2-a]pyrazine]: in assay [1], the IC50 is below 500 nM. The same compound registered a Ki at GCN2 kinase below 10 nM.

On to `NC(=O)c1cn2c(-c3cccc(-c4cccc5[nH]ccc45)n3)cnc2cn1` [IV-225, 3-(6-(1H-Indol-4-yl)pyridin-2-yl)imidazo[1,2-a]pyrazine-6-carboxamide], for which the 50% inhibitory concentration (IC50) in assay [1] was in the range of 500 to 5000 nM. The compound also registered a Ki on GCN2 kinase of 10 to 100 nM.

The compound `NC(=O)c1cn2c(-c3cccc(N4CCN5C(=O)CCC[C@H]5C4)n3)cnc2cn1` [IV-228, (S)-3-(6-(6-Oxooctahydro-2H-pyrido[1,2-a]pyrazin-2-yl)pyridin-2-yl)imidazo[1,2-a]pyrazine-6-carboxamide] came in with a 50% inhibitory concentration (IC50) in assay [1] of 500 to 5000 nM. Further, the Ki on GCN2 kinase was in the range of 10 to 100 nM.

On to `N#Cc1cn2c(-c3cccc(-c4cccc5[nH]ccc45)n3)cnc2cn1` [IV-234, 3-(6-(1H-Indol-4-yl)pyridin-2-yl)imidazo[1,2-a]pyrazine-6-carbonitrile], for which, in assay [1], the half-inhibitory concentration (IC50) was above 5000 nM. At GCN2 kinase, the Ki is 10 to 100 nM.

In assay [1], `CC1CN(c2ccnc(-c3cnc4cnc(Br)cn34)n2)C(C)C(c2cn[nH]c2)N1` (stereo not drawn) [IV-279, 6-Bromo-3-(4-(2,5-dimethyl-3-(1H-pyrazol-4-yl)piperazin-1-yl)pyrimidin-2-yl)imidazo[1,2-a]pyrazine] displayed a half-maximal inhibitory concentration (IC50) below 500 nM. Moreover, the Ki on GCN2 kinase was below 10 nM.

Compound `CC1CN(c2ccnc(-c3cnc4cnc(C#N)cn34)n2)C(C)C(c2cn[nH]c2)N1` (stereo not drawn) [IV-305, 3-(4-(2,5-Dimethyl-3-(1H-pyrazol-4-yl)piperazin-1-yl)pyrimidin-2-yl)imidazo[1,2-a]pyrazine-6-carbonitrile] returned an IC50 in assay [1] of 500 to 5000 nM. At GCN2 kinase, the Ki is below 10 nM.

Consider `CC1NC(c2cn[nH]c2)C(C)N(c2ccnc(-c3cnc4cnc(C(F)(F)F)cn34)n2)C1C` (stereo not drawn) [IV-323, 6-(Trifluoromethyl)-3-(4-(2,3,6-trimethyl-5-(1H-pyrazol-4-yl)piperazin-1-yl)pyrimidin-2-yl)imidazo[1,2-a]pyrazine], for which the IC50 in assay [1] was in the range of 500 to 5000 nM. This compound also returned a Ki on GCN2 kinase below 10 nM.

For `Brc1cn2c(-c3nccc(N4CCCC(c5c[nH]cn5)C4)n3)cnc2cn1` (stereo not drawn) [IV-340, 3-(4-(3-(1H-Imidazol-4-yl)piperidin-1-yl)pyrimidin-2-yl)-6-bromoimidazo[1,2-a]pyrazine], in assay [1], the half-maximal inhibitory concentration (IC50) lay within 500 to 5000 nM. On GCN2 kinase, the Ki is below 10 nM.

Regarding `N#Cc1cn2c(-c3nccc(N4CCCC(c5c[nH]cn5)C4)n3)cnc2cn1` (stereo not drawn) [IV-341, 3-(4-(3-(1H-Imidazol-4-yl)piperidin-1-yl)pyrimidin-2-yl)imidazo[1,2-a]pyrazine-6-carbonitrile], in assay [1], the IC50 is above 5000 nM. In addition, the Ki at GCN2 kinase was in the range of 10 to 100 nM.

Take `Brc1cn2c(-c3nccc(N4CCCC(c5cn[nH]c5)C4)n3)cnc2cn1` (stereo not drawn) [IV-346, 3-(4-(3-(1H-Pyrazol-4-yl)piperidin-1-yl)pyrimidin-2-yl)-6-bromoimidazo[1,2-a]pyrazine]: in assay [1], the IC50 is below 500 nM. This compound gave a Ki at GCN2 kinase below 10 nM.

Consider `Clc1cn2c(-c3nccc(N4CCNC(c5c[nH]cn5)C4)n3)cnc2cn1` (stereo not drawn) [IV-347, 3-(4-(3-(1H-Imidazol-4-yl)piperazin-1-yl)pyrimidin-2-yl)-6-chloroimidazo[1,2-a]pyrazine], for which, in assay [1], the IC50 was above 5000 nM. The compound also yielded a Ki at GCN2 kinase of 100 to 1000 nM.

Regarding `CC1CN(c2ccnc(-c3cnc4cnc(Cl)cn34)n2)C(C)C(c2c[nH]cn2)N1` (stereo not drawn) [IV-349, 3-(4-(3-(1H-Imidazol-4-yl)-2,5-dimethylpiperazin-1-yl)pyrimidin-2-yl)-6-chloroimidazo[1,2-a]pyrazine], in assay [1], the 50% inhibitory concentration (IC50) lay within 500 to 5000 nM. This compound returned a Ki on GCN2 kinase of 10 to 100 nM.

Take `CC1(C)CN(c2ccnc(-c3cnc4cnc(Cl)cn34)n2)CC(c2cn[nH]c2)N1` (stereo not drawn) [IV-353, 6-Chloro-3-(4-(3,3-dimethyl-5-(1H-pyrazol-4-yl)piperazin-1-yl)pyrimidin-2-yl)imidazo[1,2-a]pyrazine]: the half-inhibitory concentration (IC50) in assay [1] was in the range of 500 to 5000 nM. Further, at GCN2 kinase, the Ki was in the range of 100 to 1000 nM.

In assay [1], `CC1(C)CN(c2ccnc(-c3cnc4cnc(Br)cn34)n2)CC(c2cn[nH]c2)N1` (stereo not drawn) [IV-354, 6-Bromo-3-(4-(3,3-dimethyl-5-(1H-pyrazol-4-yl)piperazin-1-yl)pyrimidin-2-yl)imidazo[1,2-a]pyrazine] showed an IC50 above 5000 nM. The compound further registered a Ki at GCN2 kinase of 10 to 100 nM.

`Cc1nc(C2CCCN(c3ccnc(-c4cnc5cnc(Br)cn45)n3)C2)c[nH]1` (stereo not drawn) [IV-355, 6-Bromo-3-(4-(3-(2-methyl-1H-imidazol-4-yl)piperidin-1-yl)pyrimidin-2-yl)imidazo[1,2-a]pyrazine]: the IC50 in assay [1] lay within 500 to 5000 nM. In addition, the Ki on GCN2 kinase was below 10 nM.

Consider `OCC1CC(c2cn[nH]c2)CN(c2ccnc(-c3cnc4cnc(C(F)(F)F)cn34)n2)C1` (stereo not drawn) [IV-359, (5-(1H-Pyrazol-4-yl)-1-(2-(6-(trifluoromethyl)imidazo[1,2-a]pyrazin-3-yl)pyrimidin-4-yl)piperidin-3-yl)methanol], for which, in assay [1], the concentration for half-maximal inhibition (IC50) is below 500 nM. This compound also yielded a Ki on GCN2 kinase below 10 nM.

For the compound `Brc1cn2c(-c3nccc(N4CCCC(c5c[nH]cn5)C4)n3)cnc2cn1` (stereo not drawn) [IV-363, 3-(4-(3-(1H-Imidazol-4-yl)piperidin-1-yl)pyrimidin-2-yl)-6-bromoimidazo[1,2-a]pyrazine], in assay [1], the half-inhibitory concentration (IC50) is below 500 nM. This compound also had a Ki on GCN2 kinase below 10 nM.

In the case of `Brc1cn2c(-c3nccc(N4CCNC(c5cn[nH]c5)C4)n3)cnc2cn1` (stereo not drawn) [IV-371, 3-(4-(3-(1H-Pyrazol-4-yl)piperazin-1-yl)pyrimidin-2-yl)-6-bromoimidazo[1,2-a]pyrazine], the IC50 in assay [1] fell in the range of 500 to 5000 nM. The compound further had a Ki on GCN2 kinase of 10 to 100 nM.

As for `CC1CN(c2ccnc(-c3cnc4cnc(Br)cn34)n2)C(C)C(c2c[nH]cn2)N1` (stereo not drawn) [IV-373, 3-(4-(3-(1H-Imidazol-4-yl)-2,5-dimethylpiperazin-1-yl)pyrimidin-2-yl)-6-bromoimidazo[1,2-a]pyrazine], the IC50 in assay [1] fell in the range of 500 to 5000 nM. The same compound registered a Ki at GCN2 kinase below 10 nM.

In the case of `FC(F)(F)c1cn2c(-c3nccc(N4CCCC(c5cn[nH]n5)C4)n3)cnc2cn1` (stereo not drawn) [IV-378, 3-(4-(3-(2H-1,2,3-Triazol-4-yl)piperidin-1-yl)pyrimidin-2-yl)-6-(trifluoromethyl)imidazo[1,2-a]pyrazine], the concentration for half-maximal inhibition (IC50) in assay [1] was below 500 nM. In addition, the Ki at GCN2 kinase was below 10 nM.
